Laboratory results taken from paper PMC3062577, “Purification and biochemical properties of a cytochrome bc complex from the aerobic hyperthermophilic archaeon Aeropyrum pernix” (BMC Microbiology, 2011).

Assays:
[1] = target: T1, cytochrome oa3 oxidase (Aeropyrum pernix, UniProt Q9YDX6+Q9YDX7); assay: spectrophotometric TMPD oxidation at […] nm; format: biochemical; conditions: 25 mM TMPD, 0.1 M NaCl, 50 mM NaPi pH 6.5, 40 °C; without added cytochrome c553
T1 construct: gene aoxB; native, partially purified from A. pernix K1 membranes in DDM; 140 kDa on BN-PAGE; bands 74, 40 and 25 kDa (25 kDa = cytochrome c553); assigned to AoxA/AoxB by size only; aoxABC = APE_0792.1, APE_0793.1, APE_0795.1
T1 sequence (Q9YDX6 whole entry): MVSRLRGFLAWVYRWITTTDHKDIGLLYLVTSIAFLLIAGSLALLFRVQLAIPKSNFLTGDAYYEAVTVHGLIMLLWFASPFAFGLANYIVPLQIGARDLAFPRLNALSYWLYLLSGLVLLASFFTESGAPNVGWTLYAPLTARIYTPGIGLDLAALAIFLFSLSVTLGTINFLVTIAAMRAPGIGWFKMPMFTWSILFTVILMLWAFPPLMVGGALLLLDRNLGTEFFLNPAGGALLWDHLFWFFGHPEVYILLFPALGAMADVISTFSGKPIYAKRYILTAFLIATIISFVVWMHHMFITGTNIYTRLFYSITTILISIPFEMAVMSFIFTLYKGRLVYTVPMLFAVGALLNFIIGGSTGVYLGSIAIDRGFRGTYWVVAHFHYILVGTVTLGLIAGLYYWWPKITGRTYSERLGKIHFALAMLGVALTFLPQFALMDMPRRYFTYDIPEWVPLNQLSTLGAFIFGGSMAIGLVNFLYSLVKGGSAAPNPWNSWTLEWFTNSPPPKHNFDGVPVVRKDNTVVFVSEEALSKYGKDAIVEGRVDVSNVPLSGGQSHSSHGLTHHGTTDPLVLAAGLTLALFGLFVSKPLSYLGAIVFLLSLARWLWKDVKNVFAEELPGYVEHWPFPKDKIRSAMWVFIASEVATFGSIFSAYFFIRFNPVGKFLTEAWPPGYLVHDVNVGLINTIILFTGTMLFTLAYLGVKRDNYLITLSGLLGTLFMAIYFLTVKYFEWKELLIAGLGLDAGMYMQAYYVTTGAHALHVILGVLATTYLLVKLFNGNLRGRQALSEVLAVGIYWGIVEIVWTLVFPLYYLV
T1 sequence (Q9YDX7 whole entry): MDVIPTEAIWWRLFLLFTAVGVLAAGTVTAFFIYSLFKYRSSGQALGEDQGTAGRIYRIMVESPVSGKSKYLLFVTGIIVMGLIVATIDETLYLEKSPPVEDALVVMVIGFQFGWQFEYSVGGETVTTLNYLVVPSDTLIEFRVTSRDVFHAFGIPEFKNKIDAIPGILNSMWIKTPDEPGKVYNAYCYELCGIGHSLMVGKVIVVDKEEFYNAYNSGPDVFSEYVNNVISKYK
T1 sequence (Q9YDX4 whole entry partner): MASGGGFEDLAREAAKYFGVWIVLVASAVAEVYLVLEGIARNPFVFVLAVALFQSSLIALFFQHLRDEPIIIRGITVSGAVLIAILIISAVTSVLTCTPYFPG

[2] = target: T2, cytochrome c553 complex (cytochrome bc complex) (Aeropyrum pernix, UniProt Q9YB72+Q9YB73+Q9YB78); assay: spectrophotometric menaquinol oxidation / yeast cytochrome c reduction; format: biochemical; conditions: acceptor yeast cytochrome c; pH 7.0, 40 °C, 0.2 mM menaquinol-1 (menaquinol oxidase assay); 0.1% DDM
T2 construct: gene soxC; native complex purified from A. pernix K1 membranes in DDM; 80 kDa on BN-PAGE; subunits 40, 30 and 25 kDa; only the 25-kDa subunit identified by mass (21,344)
T2 sequence (Q9YB72 1-571): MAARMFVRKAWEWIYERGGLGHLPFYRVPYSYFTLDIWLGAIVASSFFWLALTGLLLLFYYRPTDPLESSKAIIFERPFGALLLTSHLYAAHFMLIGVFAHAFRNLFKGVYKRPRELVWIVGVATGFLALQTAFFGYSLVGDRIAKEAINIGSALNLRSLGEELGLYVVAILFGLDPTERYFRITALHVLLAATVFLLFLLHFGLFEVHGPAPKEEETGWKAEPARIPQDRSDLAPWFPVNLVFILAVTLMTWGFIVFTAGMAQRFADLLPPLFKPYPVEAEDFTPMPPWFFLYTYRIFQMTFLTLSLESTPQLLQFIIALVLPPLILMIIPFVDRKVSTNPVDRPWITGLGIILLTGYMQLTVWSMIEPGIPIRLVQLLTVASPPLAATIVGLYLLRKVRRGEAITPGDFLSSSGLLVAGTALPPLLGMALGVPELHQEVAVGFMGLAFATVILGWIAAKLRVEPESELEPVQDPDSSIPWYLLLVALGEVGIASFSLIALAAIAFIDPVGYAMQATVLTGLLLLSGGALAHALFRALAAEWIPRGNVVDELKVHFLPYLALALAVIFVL
T2 sequence (Q9YB73 34-265): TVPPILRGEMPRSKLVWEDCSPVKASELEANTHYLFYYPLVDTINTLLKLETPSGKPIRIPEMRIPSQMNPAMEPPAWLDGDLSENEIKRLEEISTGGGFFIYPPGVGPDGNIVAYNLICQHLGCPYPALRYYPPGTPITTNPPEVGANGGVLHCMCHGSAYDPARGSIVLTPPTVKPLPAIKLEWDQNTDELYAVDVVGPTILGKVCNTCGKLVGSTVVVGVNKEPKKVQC
T2 sequence (Q9YB78 1-190): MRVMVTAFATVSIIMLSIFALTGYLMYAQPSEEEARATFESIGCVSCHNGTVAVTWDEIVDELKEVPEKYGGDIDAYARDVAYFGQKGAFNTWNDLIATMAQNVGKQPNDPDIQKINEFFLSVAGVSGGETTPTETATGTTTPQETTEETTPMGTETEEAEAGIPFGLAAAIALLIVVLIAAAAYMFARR

For `CN(C)c1ccc(N(C)C)cc1` [TMPD, N,N,N',N'-tetramethyl-p-phenylenediamine], the “spectrophotometric TMPD oxidation at 562 nm” value [1] was “The isolated cytochrome oa3 oxidase had TMPD and yeast cytochrome c oxidation activity”.
In the case of `CC(C)=CCc1c(C)c(O)c2ccccc2c1O` [menaquinol-1], the “spectrophotometric menaquinol oxidation / yeast cytochrome c reduction” value [2] is reported as “cytochrome c553 oxidized menaquinol and reduced yeast cytochrome c”.
